Values of other authors in US20080139510A1, “Treatment of migraine headaches with sublingual amino acids” (priority 2006, published 2008).

Tested on: migraine attack
Settings: oral administration, tablet or capsule

N[C@@H](Cc1c[nH]c2ccc(O)cc12)C(=O)O [5-HTP, 5-hydroxytryptophan]
aborting or significantly mitigating pain after onset of migraine attack: ineffective
